Values quoted from earlier work in patent publication US20230210786A1, “METHOD FOR SO[…], […] […] CANNABINOIDS” (ATHENION AG, priority 2020, published 2023).

Details: in vivo

CCCCCc1cc(O)c2c(c1)OC(C)(C)[C@@H]1CCC(C)=C[C@@H]21 [THC, (-)-trans-Δ^9-tetrahydrocannabinol]
apparent volume of distribution: 10 L/kg | plasma protein binding: ca. 97%
